Patent publication US8895740B2, “Pyrazolopyrazine kinase inhibitors” (Vertex Pharmaceuticals Incorporated, priority 2010, dated 2014)

How the values were obtained:
PKC theta kinase = PKC theta kinase (Homo sapiens, UniProt Q04759); assay: PKC theta kinase coupled-enzyme (NADH consumption) inhibition assay; type: biochemical; conditions: 240 μM ATP, 18 nM PKC theta, 30° C.
Procedure: An assay buffer solution was prepared which consisted of 100 mM HEPES (pH 7.5), 10 mM MgCl2, 25 mM NaCl, 0.1 mM EDTA and 0.01% Brij. An enzyme buffer containing reagents to final assay concentrations of 0.00001% Triton X-100, 200 μg/mL Phosphatidylserine, 20 μg/mL Diacylglycerol, 360 μM NADH, 3 mM phosphoenolpyruvate, 70 μg/mL pyruvate kinase, 24 μg/mL lactate dehydrogenase, 2 mM DTT, 100 μM substrate peptide (ERMRPRKRQGSVRRRV SEQ ID NO. 1) and 18 nM PKC theta kinase was prepared in assay buffer. To 60 μL of this enzyme buffer, in a 384 well plate, was added 2 μL of VRT stock solution in DMSO. The mixture was allowed to equilibrate for 10 mins at 30° C. The enzyme reaction was initiated by the addition of 5 μL stock ATP solution prepared in assay buffer to a final assay concentration of 240 μM. Initial rate data was determined from the rate of change of absorbance at 340 nm (corresponding to stoichiometric consumption of NADH) using a Molecular Devices Spectramax plate reader (Sunnyvale, Calif.) over 15 mins at 30° C. For each Ki determination 12 data points covering the VRT concentration range of 0-20 μM were obtained in duplicate (DMSO stocks were prepared from an initial 10 mM VRT stock with subsequent 1:2 serial dilutions). Ki values were calculated from initial rate data by non-linear regression using the Prism software package (Prism 4.0a, Graphpad Software, San Diego, Calif.).

PKC delta kinase = PKC delta kinase (Homo sapiens, UniProt Q05655); assay: PKC delta kinase coupled-enzyme (NADH consumption) inhibition assay; type: biochemical; conditions: 150 μM ATP, 46 nM PKC delta, 30° C.
Procedure: An assay buffer solution was prepared which consisted of 100 mM HEPES (pH 7.5), 10 mM MgCl2, 25 mM NaCl, 0.1 mM EDTA and 0.01% Brij. An enzyme buffer containing reagents to final assay concentrations of 0.002% Triton X-100, 200 μg/mL Phosphatidylserine, 20 μg/mL Diacylglycerol, 360 μM NADH, 3 mM phosphoenolpyruvate, 70 μg/mL pyruvate kinase, 24 μg/mL lactate dehydrogenase, 2 mM DTT, 150 μM substrate peptide (ERMRPRKRQGSVRRRV SEQ ID NO. 2) and 46 nM PKC delta kinase was prepared in assay buffer. To 16 μL of this enzyme buffer, in a 384 well plate, was added 1 μL of VRT stock solution in DMSO. The mixture was allowed to equilibrate for 10 mins at 30° C. The enzyme reaction was initiated by the addition of 16 μL stock ATP solution prepared in assay buffer to a final assay concentration of 150 μM. Initial rate data was determined from the rate of change of absorbance at 340 nm (corresponding to stoichiometric consumption of NADH) using a Molecular Devices Spectramax plate reader (Sunnyvale, Calif.) over 15 mins at 30° C. For each Ki determination 12 data points covering the VRT concentration range of 0-20 μM were obtained in duplicate (DMSO stocks were prepared from an initial 10 mM VRT stock with subsequent 1:2 serial dilutions). Ki values were calculated from initial rate data by non-linear regression using the Prism software package (Prism 4.0a, Graphpad Software, San Diego, Calif.).

PKC delta kinase, sequence (Q05655 whole entry): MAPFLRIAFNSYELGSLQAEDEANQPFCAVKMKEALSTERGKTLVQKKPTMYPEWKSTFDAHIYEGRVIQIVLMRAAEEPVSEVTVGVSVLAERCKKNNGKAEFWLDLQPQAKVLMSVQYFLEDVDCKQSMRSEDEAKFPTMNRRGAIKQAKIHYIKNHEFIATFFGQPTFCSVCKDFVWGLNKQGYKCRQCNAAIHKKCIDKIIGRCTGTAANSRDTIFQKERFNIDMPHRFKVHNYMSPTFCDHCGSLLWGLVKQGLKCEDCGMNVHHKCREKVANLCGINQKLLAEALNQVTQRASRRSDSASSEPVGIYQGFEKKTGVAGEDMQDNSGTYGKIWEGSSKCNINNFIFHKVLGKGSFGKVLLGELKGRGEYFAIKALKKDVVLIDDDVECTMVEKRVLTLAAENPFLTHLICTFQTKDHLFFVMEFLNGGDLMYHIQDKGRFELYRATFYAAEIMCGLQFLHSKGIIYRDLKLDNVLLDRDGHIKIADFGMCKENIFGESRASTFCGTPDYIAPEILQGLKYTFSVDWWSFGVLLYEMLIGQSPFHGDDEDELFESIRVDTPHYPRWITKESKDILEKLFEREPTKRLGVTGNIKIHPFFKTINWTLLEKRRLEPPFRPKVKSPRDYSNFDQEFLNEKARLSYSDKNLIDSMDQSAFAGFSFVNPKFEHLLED
PKC theta kinase, sequence (Q04759 whole entry): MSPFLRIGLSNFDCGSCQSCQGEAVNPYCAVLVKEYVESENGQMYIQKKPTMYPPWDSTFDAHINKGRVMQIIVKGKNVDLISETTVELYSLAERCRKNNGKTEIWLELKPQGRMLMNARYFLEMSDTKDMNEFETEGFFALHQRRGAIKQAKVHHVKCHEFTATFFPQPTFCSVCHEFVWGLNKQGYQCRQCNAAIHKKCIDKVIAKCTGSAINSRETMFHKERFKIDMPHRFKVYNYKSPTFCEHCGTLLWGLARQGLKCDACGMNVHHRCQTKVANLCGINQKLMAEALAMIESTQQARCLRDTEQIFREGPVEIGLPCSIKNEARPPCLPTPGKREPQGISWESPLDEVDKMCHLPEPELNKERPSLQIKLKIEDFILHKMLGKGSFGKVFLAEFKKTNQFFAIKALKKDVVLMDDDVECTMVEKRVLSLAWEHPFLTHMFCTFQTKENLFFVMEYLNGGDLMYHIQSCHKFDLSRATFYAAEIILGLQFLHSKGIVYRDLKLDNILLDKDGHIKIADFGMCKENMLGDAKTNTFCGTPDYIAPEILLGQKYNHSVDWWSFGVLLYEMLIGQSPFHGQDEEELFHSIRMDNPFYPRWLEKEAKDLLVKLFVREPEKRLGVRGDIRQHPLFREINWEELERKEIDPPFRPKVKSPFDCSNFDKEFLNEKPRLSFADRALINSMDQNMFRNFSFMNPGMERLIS

`c1cc(-c2n[nH]c3nccnc23)nc(N2CCNCC2)c1` [Compound 1, 3-(6-(piperazin-1-yl)pyridin-2-yl)-1H-pyrazolo[3,4-b]pyrazine] was tested, and the Ki (PKC theta kinase) was less than 2800 nM and the Ki (PKC delta kinase) was greater than 1250 nM.
